According to US8415095B2, “Use of nucleoside derivatives comprising a citrate group for the production of antibodies having an affinity for triphosphorylated nucleosides” (Centre National de la Recherche-Scientifique-CNRS, priority 2003, dated 2013):
Where “and” joins values, the source holds several entries; their conditions need not be identical. Equal values may be shown once.

How the values were obtained:
[1] = test system: anti-isostere antibody of ddATP; experiment: Radioimmunological determination (RIA) of the specificity of the anti-isostere antibody of ddATP, tracer ddA-HS-K-125IY; set-up: species or system rabbit; conditions: concentration of non-tagged antigen which inhibits 50% of the antigen-antibody binding
Excerpt: The polyclonal antibodies were produced in the rabbit, according to standard methods.
The antibodies having an affinity for the ddNTP derivatives can be identified by immunological techniques either by means of immunoenzymatic determinations or by means of radioimmunological determinations (RIA).
The specificity of these antibodies was studied in relation to different analogues of ddATP.

[2] = test system: blood monocyte cells; experiment: In vitro cell model: blood monocyte cells incubated with ddI, RIA of supernatant ddI and intracellular ddATP after Sep Pak anionic cartridge; format: in vitro ADME, human; conditions: for Intracellular content in ddATP eq. (pmoles/10^6) cells: fractions 32-37
Experimental: Separation by anionic chromatography of the different phosphorylated metabolites stemming from the cellular metabolism of the ddI (ddIMP, ddAMP, ddADP and ddATP) was performed on Sep Pak anionic cartridge by means of a stepwise gradient using different concentrations of KCl (6 ml KCl 50 mM, 10 ml KCl 100 mM and 6 ml KCl 250 mM).
A certain number of controls were performed on an in vitro cell model. After separation by density gradient on Ficoll, the blood monocyte cells were incubated with different concentrations of ddI in the RPMI (at the level of 5×10^5 cells per ml).
The immunoreactivity present in the supernatant was expressed in equivalents (eq.) ddI established in relation to a ddI reference curve, and illustrated in Table 2 below. The ddATP immunoreactivity corresponds to the sum of the immunoreactivities present in the fractions 32-37 stemming from the separation of the intracellular contents on Sep Pak anionic cartridge. The immunoreactivity was expressed in ddATP equivalents in relation to a ddATP reference curve, and is also illustrated in Table 2 below.
The nature of the immunoreactive material present in the culture supernatant and in the intracellular medium was controlled by chromatography on a Sep Pak anionic cartridge. and detected by radioimmunological quantitation. […] This is shown in attached FIG. 2.

[3] = human, in vivo
Experimental: Blood samples were collected from patients infected with HIV-1 and undergoing treatment comprising administration of ddI. The patients were under the supervision of Professor P. Dellamonica at the Archet Hospital in Nice. The blood samples were collected using cell preparation tubes (CPT) at the rate of two 4-ml tubes for each of the 4 patients participating in this study. Quantification of the ddI in the plasma was performed for each patient and expressed in ddI equivalents. Intracellular quantification of ddATP was performed after chromatography (on Sep Pak anionic cartridge) of the cellular lysates. For each fraction (500 μl), the cellular content of ddATP was determined directly and expressed in ddATP equivalents; quantification was then performed after dephosphorylation and expressed in ddA equivalents.

IC50 [1]	further results	SMILES
200 µM		Nc1ccn(C2CSC(CO)O2)c(=O)n1 (centres unmarked) [3TC, 2′,3′-dideoxyo-3′-thiacytidine]
> 1000 µM		Nc1ncnc2c1ncn2[C@@H]1O[C@H](COP(=O)(O)OP(=O)(O)O)[C@@H](O)[C@H]1O [ADP]
> 1000 µM		Nc1ncnc2c1ncn2[C@@H]1O[C@H](COP(=O)(O)O)[C@@H](O)[C@H]1O [AMP]
36 µM		Nc1ncnc2c1ncn2[C@@H]1O[C@H](COP(=O)(O)OP(=O)(O)OP(=O)(O)O)[C@@H](O)[C@H]1O [ATP]
9 µM		Nc1ncnc2nc[nH]c12 [adenine]
2.4 µM		Nc1ncnc2c1ncn2[C@@H]1O[C@H](CO)[C@@H](O)[C@H]1O [adenosine]
0.3 µM		Nc1ncnc2c1ncn2C1CC(O)C(CO)O1 (centres unmarked) [dA]
0.0004 µM		Nc1ncnc2c1ncn2[C@H]1CC[C@@H](CO)O1 [ddA, 2′,3′-dideoxyadenosine]
0.0011 µM		Nc1ncnc2c1ncn2[C@H]1CC[C@@H](COP(=O)(O)OP(=O)(O)OP(=O)(O)O)O1 [ddATP, 2′,3′-didesoxyadenosine-5′-triphosphate]
> 1000 µM		Nc1ccn([C@H]2CC[C@@H](CO)O2)c(=O)n1 [ddC]
0.002 µM	intracellular immunoreactive content eluted in the elution volume of ddATP (yield) ([2]; Sep Pak anionic cartridge): 92%; share of supernatant immunoreactivity in fractions 1 to 5 (elution volume of ddI) ([2]; culture supernatants n=4, Sep Pak anionic cartridge): 100%; Concentration of ddI of the supernatant in ddI eq. ([2]; incubated ddI 1 × 10^−4 M): 130 µM and 150 µM; Concentration of ddI of the supernatant in ddI eq. (M) ([2]; incubated ddI 1 × 10^−5 M): 3.8 ± 0.34 × 10^−5 (n = 2) M; Intracellular content in ddATP eq. (pmoles/10^6) cells ([2]; incubated ddI 1 × 10^−5 M): 10.4 ± 0.6 (n = 2) pmoles/10^6 cells; Concentration of ddI of the supernatant in ddI eq. (M) ([2]; incubated ddI 1 × 10^−7 M): 2.74 × 10^−7 (n = 1) M; Intracellular content in ddATP eq. (pmoles/10^6) cells ([2]; incubated ddI 1 × 10^−7 M): 0.15 (n = 1) pmoles/10^6 cells; Concentration of ddI of the supernatant in ddI eq. (M) ([2]; incubated ddI 5 × 10^−6 M): 5.74 × 10^−6 (n = 1) M; Intracellular content in ddATP eq. (pmoles/10^6) cells ([2]; incubated ddI 5 × 10^−6 M): 1.8 (n = 1) pmoles/10^6 cells; ddI in the cells ([2]; no immunoreactive material at the retention time of ddI): not detectable; plasma concentrations [3]: 2-6×10^−6	O=c1[nH]cnc2c1ncn2[C@H]1CC[C@@H](CO)O1 [ddI]
5.2e-05 µM		Nc1ncnc2c1ncn2C1CCC(COC(=O)CC(O)(CC(=O)O)C(=O)O)O1 (centres unmarked) [isostere of ddATP, 5′-O-(3,4-dicarboxy-3-hydroxy)butanoate-2′,3′-didesoxyadenosine]
